Like-named read-outs stand apart in the source and are kept apart here.
Experiments:
[1] = tested on: skin of rabbits; assay: Draize test (skin irritation, PII value); settings: for PII value: preferred acrylic/methacrylic acid esters; for PH value: starting material (component) of the adhesive materials
Description: (§1) The PII, or skin irritation, value is a skin toxicity index measured in accordance with the method defined by the Consumer Product Safety Commission of the USA (Draize Method; The Consumer Product Safely Commission of the USA, the Code of Federal Regulations, Title 16, Section 1500.41). A lower index corresponds to less pronounced skin irritation.
(§2) Hair was removed with the aid of an electric hair clipper from the lumbar regions of six healthy rabbits (body weight: 2.0-4.0 kg) to expose the skin over an area of about 10 cm^2. The skin on the right side of the vertebra was incised with a surgical knife over an area of 2.5 cm^2, creating a lesion. The skin on the left side of the vertebra was left intact, and pads obtained by applying 0.5 mL samples were affixed at two locations on the right and left of the vertebra. The pads were peeled off 24 and 72 hours following affixation, redness and swelling were visually observed, the results were graded using a five-point system (levels 0 to 4), a gross mean was obtained using the average values for each rabbit, and the gross mean value was termed the PII value.

[2] = tested on: mutant strain (his−) of Salmonella requiring histidine; settings: starting material (component) of the adhesive materials
Method: The Ames test referred to herein is also known as a mutagenicity test, and is one of tests in which bacteria are used to screen chemical substances for carcinogenicity or mutagenicity. […] This mutation is the result of DNA damage, and carcinogenicity is believed to become more pronounced with increased ease of mutation. Consequently, an adhesive material having high biological safety must give a negative result of the Ames test.
This test was performed using direct reverse mutation of a mutant strain (his−) of Salmonella requiring histidine to a non-requiring strain (his+) under the action of a test substance. A specific test method involved preparing histidine-free media to which a metabolically active substance (S9) bad been added, and histidine-free media devoid of the metabolically active substance (S9). The test substance was admixed into these media, a strain (his−) requiring histidine was cultured, and the bacterial colony count of a medium containing the test substance was compared with the bacterial colony count of a medium devoid of the substance. If the first value was greater than the second, the test result was concluded to be positive, otherwise the result was concluded to be negative.

[3] = tested on: skin of rabbits; settings: rabbit, in vivo
Description: as §1, §2

1,3-butanediol methacrylate
PII value [1]: 0.0

C=C(C)C(=O)OCC(C)O (centres unmarked) [2-hydroxypropyl methacrylate]
PII value [1]: 0.0

C=C(C)C(=O)OCC(C)(C)COC(=O)C(=C)C [Neopentyl glycol dimethacrylate]
Mutagenicity [2]: negative
PII value [1]: 0.0
PH value [1]: 0.0

C=CC(=O)OCCOc1ccccc1 [Phenoxyethyl acrylate]
PH value [1]: 1.5

C=C(C)C(=O)OCCO [hydroxyethyl methacrylate]
PII value [1]: 0.0

Polypropylene glycol diacrylate
Mutagenicity [2]: negative
PH value [3]: 0.0
PII value [3]: 0.0

ditrimethylol propane tetraacrylate
PII value [1]: 0.0

From patent USRE41784E1, “Adhesive material” (Sony Corporation, priority 2000, dated 2010)
